Laboratory results taken from PMC8698959, “A Combination of Structural, Genetic, Phenotypic and Enzymatic Analyses Reveals the Importance of a Predicted Fucosyltransferase to Protein O-Glycosylation in the Bacteroidetes” (Biomolecules, 2021).

Columns and labels:
rBF4306 (FucT) = molecular target: T1, rBF4306 (FucT) (Bacteroides fragilis, UniProt Q5L7H9); assay: TLC and ESI-MS of fucosylated product; type: biochemical; conditions: 5 mM MgCl2, 5 mM MnCl2, pH 7.4, 37 °C, overnight
T1 construct: gene BF9343_4192; tag kept; partly degraded
Source text: (§1) All three enzymes transferred L-Fuc to pNP-α-Gal

rPhep_4048 (FucT) = molecular target: T2, rPhep_4048 (FucT) (Pedobacter heparinus, UniProt C6XWF0); assay: TLC and ESI-MS of fucosylated product; type: biochemical; conditions: donor; acceptor pNP-α-D-Gal 8 mM, 5 mM MgCl2, 5 mM MnCl2, pH 7.4, 37 °C, overnight
T2 construct: gene Phep_4048; tag kept; partly degraded
T2 sequence (C6XWF0 1-252): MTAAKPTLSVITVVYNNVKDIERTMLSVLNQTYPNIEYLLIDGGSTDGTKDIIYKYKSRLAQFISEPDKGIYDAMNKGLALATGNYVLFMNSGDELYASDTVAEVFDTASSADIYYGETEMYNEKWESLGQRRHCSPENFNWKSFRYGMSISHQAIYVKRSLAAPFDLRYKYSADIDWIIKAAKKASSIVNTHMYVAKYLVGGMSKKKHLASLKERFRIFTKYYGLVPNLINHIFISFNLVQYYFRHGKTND
Source text: as §1

T1 sequence (Q5L7H9 entry or part of it): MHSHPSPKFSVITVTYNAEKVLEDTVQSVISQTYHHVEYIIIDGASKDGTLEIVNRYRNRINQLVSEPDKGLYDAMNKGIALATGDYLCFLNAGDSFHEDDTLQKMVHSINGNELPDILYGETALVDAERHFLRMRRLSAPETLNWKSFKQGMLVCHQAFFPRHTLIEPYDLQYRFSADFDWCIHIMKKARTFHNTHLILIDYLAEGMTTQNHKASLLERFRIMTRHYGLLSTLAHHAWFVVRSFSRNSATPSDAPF

| SMILES | TLC and ESI-MS of fucosylated product (rBF4306 (FucT); donor, acceptor pNP-α-D-Glc 8 mM) | TLC and ESI-MS of fucosylated product (rPhep_4048 (FucT)) | TLC and ESI-MS of fucosylated product (rBF4306 (FucT); 2 mM GDP-L-Fuc, 8 mM acceptor) |
| --- | --- | --- | --- |
| C[C@@H]1O[C@H](OP(=O)(O)OP(=O)(O)OC[C@H]2O[C@@H](n3cnc4c(=O)[nH]c(N)nc43)[C@H](O)[C@@H]2O)[C@@H](O)[C@H](O)[C@@H]1O [GDP-L-Fuc] | with GDP-L-Fuc serving as the Fuc donor. All three enzymes transferred L-Fuc to pNP-α-Gal | with GDP-L-Fuc serving as the Fuc donor. All three enzymes transferred L-Fuc to pNP-α-Gal | – |
| O=[N+]([O-])c1ccc(O[C@H]2O[C@H](CO)[C@@H](O)[C@H](O)[C@H]2O)cc1 [pNP-α-D-Glc] | – | – | rBF4306 demonstrated very low activity with all substrates; pNP-α-Glc was the best substrate |
